In brackets after ≈: the same amount, converted by molar mass.
Legend:
Aspergillus fumigatus = experiment: Antifungal activity against Aspergillus fumigatus ATCC 26934 after 48 hrs; type: functional; settings: ATCC 26934, 48 h
Trichophyton benhamiae = experiment: Antifungal activity against Trichophyton mentagrophytes ATCC 9972 after 48 hrs; type: functional, Arthroderma benhamiae; settings: ATCC 9972, 48 h
Trichophyton rubrum = experiment: Antifungal activity against Trichophyton rubrum C113 after 48 hrs; type: functional
Cryptococcus neoformans [1] = experiment: Antifungal activity against Cryptococcus neoformans ATCC 32264 after 48 hrs; type: functional; settings: ATCC 32264, 48 h
Nannizzia gypsea = experiment: Antifungal activity against Microsporum gypseum C115 after 48 hrs; type: functional
Saccharomyces cerevisiae = experiment: Antifungal activity against Saccharomyces cerevisiae ATCC 9763 after 48 hrs; type: functional; settings: ATCC 9763, 48 h
Aspergillus flavus = experiment: Antifungal activity against Aspergillus flavus ATCC 9170 after 48 hrs; type: functional; settings: ATCC 9170, 48 h
Aspergillus niger = experiment: Antifungal activity against Aspergillus niger ATCC 9029 after 48 hrs; type: functional; settings: ATCC 9029, 48 h
Candida albicans [2] = experiment: Antifungal activity against Candida albicans ATCC 10231 after 48 hrs; type: functional; settings: ATCC 10231, 48 h
Cryptococcus neoformans [3] = experiment: Antifungal activity against […] IM 00319 after 48 hrs; type: functional
Torulaspora delbrueckii = experiment: Antifungal activity against Candida coliculosa C122-2000 after 48 hrs; type: functional
Candida albicans [4] = experiment: Antifungal activity against Candida albicans C125-2000 after 48 hrs; type: functional
Kluyveromyces marxianus = experiment: Antifungal activity against Candida kefyr C123-2000 after 48 hrs; type: functional
Cryptococcus neoformans [5] = experiment: Antifungal activity against […] IM 972724 after 48 hrs; type: functional
Cryptococcus neoformans [6] = experiment: Antifungal activity against […] ATCC 32264 after 48 hrs; type: functional; settings: ATCC 32264, 48 h
Candida albicans [7] = experiment: Antifungal activity against Candida albicans C130-2000 after 48 hrs; type: functional
Cryptococcus neoformans [8] = experiment: Antifungal activity against […] IM 052470 after 48 hrs; type: functional
Cryptococcus neoformans [9] = experiment: Antifungal activity against […] IM 983036 after 48 hrs; type: functional
Candida albicans [10] = experiment: Antifungal activity against Candida albicans C126-2000 after 48 hrs; type: functional
Candida tropicalis = experiment: Antifungal activity against Candida tropicalis C131-1997 after 48 hrs; type: functional
Candida albicans [11] = experiment: Antifungal activity against Candida albicans C127-2000 after 48 hrs; type: functional
Cryptococcus neoformans [12] = experiment: Antifungal activity against […] IM 961951 after 48 hrs; type: functional
Candida parapsilosis = experiment: Antifungal activity against Candida parapsilosis C124-2000 after 48 hrs; type: functional; settings: Lodderomyces parapsilosis
Cryptococcus neoformans [13] = experiment: Antifungal activity against Candida neoformans IM 983040 after 48 hrs; type: functional
Cryptococcus neoformans [14] = experiment: Antifungal activity against […] IM 972751 after 48 hrs; type: functional
Cryptococcus neoformans [15] = experiment: Antifungal activity against […] IM 042074 after 48 hrs; type: functional
Clavispora lusitaniae = experiment: Antifungal activity against Candida lusitaniae C131-2000 after 48 hrs; type: functional
Candida albicans [16] = experiment: Antifungal activity against Candida albicans C128-2000 after 48 hrs; type: functional
Cryptococcus neoformans [17] = experiment: Antifungal activity against […] IM 031631 after 48 hrs; type: functional
Cryptococcus neoformans [18] = experiment: Antifungal activity against […] IM 031706 after 48 hrs; type: functional
Nakaseomyces glabratus = experiment: Antifungal activity against Candida glabrata C115-2000 after 48 hrs; type: functional
Pichia kudriavzevii = experiment: Antifungal activity against Candida krusei C117-2000 after 48 hrs; type: functional
[19] = Cryptococcus neoformans, 48 h, read-out: MFC

## COc1ccc(/C=C2\SC(=S)NC2=O)c(OC)c1OC
Aspergillus fumigatus
  MIC: > 250 µg/mL
Trichophyton benhamiae
  MIC: > 250 µg/mL
Trichophyton rubrum
  MIC: > 250 µg/mL
Cryptococcus neoformans [1]
  MIC: > 250 µg/mL
Nannizzia gypsea
  MIC: > 250 µg/mL
Saccharomyces cerevisiae
  MIC: > 250 µg/mL
Aspergillus flavus
  MIC: > 250 µg/mL
Aspergillus niger
  MIC: > 250 µg/mL
Candida albicans [2]
  MIC: > 250 µg/mL

## O=C1NC(=S)S/C1=C\c1ccccc1F
Aspergillus fumigatus
  MIC: > 250 µg/mL
Trichophyton benhamiae
  MIC: 3.9 µg/mL (≈ 16.3 µM)
Trichophyton rubrum
  MIC: 3.9 µg/mL (≈ 16.3 µM)
Cryptococcus neoformans [1]
  MIC: 15.6 µg/mL (≈ 65.2 µM)
Nannizzia gypsea
  MIC: 3.9 µg/mL (≈ 16.3 µM)
Saccharomyces cerevisiae
  MIC: 250 µg/mL (≈ 1040 µM)
Aspergillus flavus
  MIC: > 250 µg/mL
Aspergillus niger
  MIC: > 250 µg/mL
Candida albicans [2]
  MIC: 250 µg/mL (≈ 1040 µM)

## C[C@@H]1[C@H](O)[C@@H](C)/C=C/C=C/C=C/C=C/C=C/C=C/C=C/[C@H](O[C@@H]2O[C@H](C)[C@@H](O)[C@H](N)[C@@H]2O)C[C@@H]2O[C@](O)(C[C@@H](O)C[C@@H](O)[C@H](O)CC[C@@H](O)C[C@@H](O)CC(=O)O[C@H]1C)C[C@H](O)[C@H]2C(=O)O [AMPHOTERICIN B]
Cryptococcus neoformans [3]
  MFC: 0.25 µg/mL (≈ 0.271 µM)
Torulaspora delbrueckii
  MFC: 0.36 µg/mL (≈ 0.39 µM)
Candida albicans [4]
  MFC: 0.78 µg/mL (≈ 0.844 µM)
Kluyveromyces marxianus
  MFC: 0.78 µg/mL (≈ 0.844 µM)
Cryptococcus neoformans [5]
  MFC: 0.06 µg/mL (≈ 0.0649 µM)
Cryptococcus neoformans [6]
  MFC: 0.25 µg/mL (≈ 0.271 µM)
Candida albicans [7]
  MFC: 0.78 µg/mL (≈ 0.844 µM)
Cryptococcus neoformans [8]
  MFC: 0.5 µg/mL (≈ 0.541 µM)
Cryptococcus neoformans [9]
  MFC: 0.13 µg/mL (≈ 0.141 µM)
Candida albicans [10]
  MFC: 1.56 µg/mL (≈ 1.69 µM)
Candida tropicalis
  MFC: 0.5 µg/mL (≈ 0.541 µM)
Candida albicans [11]
  MFC: 0.78 µg/mL (≈ 0.844 µM)
Cryptococcus neoformans [12]
  MFC: 0.06 µg/mL (≈ 0.0649 µM)
Candida parapsilosis
  MFC: 0.78 µg/mL (≈ 0.844 µM)
Cryptococcus neoformans [13]
  MFC: 0.13 µg/mL (≈ 0.141 µM)
Cryptococcus neoformans [14]
  MFC: 0.25 µg/mL (≈ 0.271 µM)
Cryptococcus neoformans [15]
  MFC: 0.25 µg/mL (≈ 0.271 µM)
Clavispora lusitaniae
  MFC: 0.39 µg/mL (≈ 0.422 µM)
Candida albicans [16]
  MFC: 1.56 µg/mL (≈ 1.69 µM)
Cryptococcus neoformans [17]; [19]
  MFC: 0.13 µg/mL (≈ 0.141 µM)
Cryptococcus neoformans [18]
  MFC: 0.25 µg/mL (≈ 0.271 µM)
Nakaseomyces glabratus
  MFC: 0.39 µg/mL (≈ 0.422 µM)
Pichia kudriavzevii
  MFC: 0.39 µg/mL (≈ 0.422 µM)

## Nc1nc(=O)[nH]cc1F [FLUCYTOSINE]
Cryptococcus neoformans [5]
  MFC: 3.9 µg/mL (≈ 30.2 µM)
Cryptococcus neoformans [8]
  MFC: 7.8 µg/mL (≈ 60.4 µM)
Cryptococcus neoformans [9]
  MFC: 7.8 µg/mL (≈ 60.4 µM)
Cryptococcus neoformans [12]
  MFC: 3.9 µg/mL (≈ 30.2 µM)
Cryptococcus neoformans [13]
  MFC: 7.8 µg/mL (≈ 60.4 µM)
Cryptococcus neoformans [14]
  MFC: 15.6 µg/mL (≈ 121 µM)
Cryptococcus neoformans [15]
  MFC: 3.9 µg/mL (≈ 30.2 µM)
Cryptococcus neoformans [17]; [19]
  MFC: 7.8 µg/mL (≈ 60.4 µM)
Cryptococcus neoformans [18]
  MFC: 7.8 µg/mL (≈ 60.4 µM)

## CCC(C)n1ncn(-c2ccc(N3CCN(c4ccc(OCC5COC(Cn6cncn6)(c6ccc(Cl)cc6Cl)O5)cc4)CC3)cc2)c1=O (centres undefined) [ITRACONAZOLE]
Cryptococcus neoformans [3]
  MFC: < 0.015 µg/mL
Cryptococcus neoformans [5]
  MFC: 0.25 µg/mL (≈ 0.354 µM)
Cryptococcus neoformans [6]
  MFC: 0.15 µg/mL (≈ 0.213 µM)
Cryptococcus neoformans [8]
  MFC: < 0.015 µg/mL
Cryptococcus neoformans [9]
  MFC: < 0.015 µg/mL
Cryptococcus neoformans [12]
  MFC: < 0.015 µg/mL
Cryptococcus neoformans [13]
  MFC: < 0.015 µg/mL
Cryptococcus neoformans [14]
  MFC: < 0.015 µg/mL
Cryptococcus neoformans [15]
  MFC: < 0.015 µg/mL
Cryptococcus neoformans [17]; [19]
  MFC: 0.25 µg/mL (≈ 0.354 µM)
Cryptococcus neoformans [18]
  MFC: 0.5 µg/mL (≈ 0.709 µM)

## CC(=O)N1CCN(c2ccc(OCC3COC(Cn4ccnc4)(c4ccc(Cl)cc4Cl)O3)cc2)CC1 (centres undefined) [KETOCONAZOLE]
Torulaspora delbrueckii
  MFC: 0.78 µg/mL (≈ 1.47 µM)
Candida albicans [4]
  MFC: 6.25 µg/mL (≈ 11.8 µM)
Kluyveromyces marxianus
  MFC: 0.78 µg/mL (≈ 1.47 µM)
Cryptococcus neoformans [6]
  MFC: 0.25 µg/mL (≈ 0.47 µM)
Candida albicans [7]
  MFC: 6.25 µg/mL (≈ 11.8 µM)
Candida albicans [10]
  MFC: 1.56 µg/mL (≈ 2.94 µM)
Candida tropicalis
  MFC: 0.125 µg/mL (≈ 0.235 µM)
Candida albicans [11]
  MFC: 6.25 µg/mL (≈ 11.8 µM)
Candida parapsilosis
  MFC: 0.78 µg/mL (≈ 1.47 µM)
Clavispora lusitaniae
  MFC: 25 µg/mL (≈ 47 µM)
Candida albicans [16]
  MFC: 6.25 µg/mL (≈ 11.8 µM)
Nakaseomyces glabratus
  MFC: 1.56 µg/mL (≈ 2.94 µM)
Pichia kudriavzevii
  MFC: 50 µg/mL (≈ 94.1 µM)

## C[C@@H](c1ncncc1F)[C@](O)(Cn1cncn1)c1ccc(F)cc1F [VORICONAZOLE]
Cryptococcus neoformans [3]
  MFC: < 0.015 µg/mL
Cryptococcus neoformans [5]
  MFC: < 0.015 µg/mL
Cryptococcus neoformans [8]
  MFC: 0.03 µg/mL (≈ 0.0859 µM)
Cryptococcus neoformans [9]
  MFC: < 0.015 µg/mL
Cryptococcus neoformans [12]
  MFC: 0.015 µg/mL (≈ 0.0429 µM)
Cryptococcus neoformans [13]
  MFC: < 0.015 µg/mL
Cryptococcus neoformans [14]
  MFC: 0.03 µg/mL (≈ 0.0859 µM)
Cryptococcus neoformans [15]
  MFC: < 0.015 µg/mL
Cryptococcus neoformans [17]
  MFC: 0.25
Cryptococcus neoformans [18]
  MFC: 0.5 µg/mL (≈ 1.43 µM)

— ChEMBL document CHEMBL1144507, “Synthesis and antifungal activity of (Z)-5-arylidenerhodanines” (2007)
